Results as given in ChEMBL document CHEMBL4831527, “Structure-Based Design and Discovery of Pyridyl-Bearing Fused Bicyclic HIV-1 Inhibitors: Synthesis, Biological Characterization, and Molecular Modeling Studies” (J Med Chem, 2021).
The source made the active and inactive calls. The rule behind the calls is not given here.

Assays:
[1] = system: Human immunodeficiency virus 1; experiment: Antiviral activity against HIV1 RES056 infected in human MT4 cells assessed as protection against virus-induced cytopathic effect incubated for 5 days by MTT assay; format: functional, organism-based; settings: Human immunodeficiency virus 1, RES056, MT4, 120 h
[2] = system: Human immunodeficiency virus 1; experiment: Antiviral activity against HIV1 harboring reverse transcriptase L100I mutant infected in human MT4 cells assessed as protection against virus-induced cytopathic effect incubated for 5 days by MTT assay; format: functional, organism-based; settings: Human immunodeficiency virus 1, MT4, 120 h
[3] = Selectivity index, ratio of CC50 for mock-infected human MT4 cells to EC50 for HIV1 RES056 infected in human MT4 cells; format: toxicity, cell-based; settings: MT4 cells (mock-infected and HIV1 RES056 infected), read-out: Ratio CC50/EC50
[4] = target: Human immunodeficiency virus type 1 reverse transcriptase (Human immunodeficiency virus 1, UniProt Q72547); experiment: Inhibition of wild type HIV1 p66/p51 reverse transcriptase using poly(rA) as template, oligo(dT)16 as primer and RNA/DNA as substrate measured after 40 mins by PICOGreen-dye based spectrofluorimetry analysis
[5] = Selectivity index, ratio of CC50 for mock-infected human MT4 cells to EC50 for HIV1 3B infected in human MT4 cells; format: toxicity, cell-based; settings: MT4 cells (mock-infected and HIV1 3B infected), read-out: Ratio CC50/EC50
[6] = system: Human immunodeficiency virus 2; experiment: Antiviral activity against HIV2 ROD infected in human MT4 cells assessed as protection against virus-induced cytopathogenicity after 5 days by MTT assay; format: functional, organism-based; settings: time 5.0 day
[7] = system: Human immunodeficiency virus 1; experiment: Antiviral activity against HIV1 harboring reverse transcriptase Y181C mutant infected in human MT4 cells assessed as protection against virus-induced cytopathic effect incubated for 5 days by MTT assay; format: functional, organism-based; settings: Human immunodeficiency virus 1, MT4, 120 h
[8] = system: Human immunodeficiency virus 1; experiment: Antiviral activity against HIV1 3B infected in human MT4 cells assessed as protection against virus-induced cytopathic effect incubated for 5 days by MTT assay; format: functional, organism-based; settings: Human immunodeficiency virus 1, 3B, MT4, 120 h
[9] = Cytotoxicity against mock-infected human MT4 cells assessed as reduction in cell viability measured after 5 days by MTT assay; format: cell-based; settings: time 5 day
[10] = system: Human immunodeficiency virus 1; experiment: Antiviral activity against HIV1 harboring reverse transcriptase K103N mutant infected in human MT4 cells assessed as protection against virus-induced cytopathic effect incubated for 5 days by MTT assay; format: functional, organism-based; settings: Human immunodeficiency virus 1, MT4, 120 h
[11] = system: Human immunodeficiency virus 1; experiment: Antiviral activity against HIV1 harboring reverse transcriptase F227L/V106A double mutant infected in human MT4 cells assessed as protection against virus-induced cytopathic effect incubated for 5 days by MTT assay; format: functional, organism-based; settings: Human immunodeficiency virus 1, MT4, 120 h
[12] = system: Human immunodeficiency virus 1; experiment: Antiviral activity against HIV1 harboring reverse transcriptase Y188L mutant infected in human MT4 cells assessed as protection against virus-induced cytopathic effect incubated for 5 days by MTT assay; format: functional, organism-based; settings: Human immunodeficiency virus 1, MT4, 120 h
[13] = system: Human immunodeficiency virus 1; experiment: Antiviral activity against HIV1 harboring reverse transcriptase E138K mutant infected in human MT4 cells assessed as protection against virus-induced cytopathic effect incubated for 5 days by MTT assay; format: functional, organism-based; settings: Human immunodeficiency virus 1, MT4, 120 h

Cc1cc(C=O)cc(C)c1Oc1nc(Nc2ccc(C#N)cc2)nc2c1CCCC2
EC50 [1]: 1200 nM | EC50 [2]: 492 nM | selectivity ratio [3]: 5 | IC50 [4]: 55 nM | selectivity ratio [5]: 169 | Activity [6]: inactive | EC50 [7]: 748 nM | EC50 [8]: 35.1 nM | CC50 at 120 h [9]: 5900 nM | EC50 [10]: 63.7 nM | EC50 [11]: 2240 nM | EC50 [12]: 663 nM | EC50 [13]: 146 nM

Cc1cc(/C=C/C#N)cc(C)c1Oc1nc(Nc2ccc(CC#N)cc2)nc2c1CCCC2
EC50 [1]: 433 nM | EC50 [2]: 49 nM | selectivity ratio [3]: 112 | IC50 [4]: 49 nM | selectivity ratio [5]: 2730 | Activity [6]: inactive | EC50 [7]: 140 nM | EC50 [8]: 17.7 nM | CC50 at 120 h [9]: 48300 nM | EC50 [10]: 12.9 nM | EC50 [11]: > 25800 nM | EC50 [12]: > 25800 nM | EC50 [13]: > 25800 nM

Cc1cc(C=O)cc(C)c1Oc1nc(Nc2ccc(C#N)nc2)nc2c1CCCC2
EC50 [1]: 9210 nM | selectivity ratio [3]: 2 | IC50 [4]: 43 nM | selectivity ratio [5]: 590 | Activity [6]: inactive | EC50 [8]: 35.4 nM | CC50 at 120 h [9]: 20900 nM

Cc1cc(C#N)cc(C)c1Oc1nc(Nc2ccc(C#N)cn2)nc2c1ccn2COCC[Si](C)(C)C
EC50 [1]: > 93900 nM | selectivity ratio [3]: < 1 | IC50 [4]: 31000 nM | selectivity ratio [5]: < 1 | Activity [6]: inactive | EC50 [8]: > 93900 nM | CC50 at 120 h [9]: 93900 nM

O=C1Nc2ccc(Cl)cc2[C@@](C#CC2CC2)(C(F)(F)F)O1 [EFAVIRENZ]
EC50 [1]: 144 nM | EC50 [2]: 51.6 nM | selectivity ratio [3]: > 44 | selectivity ratio [5]: > 1390 | EC50 [8]: 4.5 nM | CC50 at 120 h [9]: > 6300 nM | EC50 [11]: 274 nM | EC50 [12]: 244 nM | EC50 [13]: 6 nM

Cc1cc(C#N)cc(C)c1Oc1nc(Nc2ccc(C#N)cc2)nc2c1ccn2COCC[Si](C)(C)C
EC50 [1]: > 2960 nM | selectivity ratio [3]: < 1 | IC50 [4]: 171 nM | selectivity ratio [5]: 4 | Activity [6]: inactive | EC50 [8]: 820 nM | CC50 at 120 h [9]: 3000 nM

Cc1cc(C#N)cc(C)c1Oc1nc(Nc2ccc(CC#N)cc2)nc2c1CCCC2
EC50 [1]: 1020 nM | EC50 [2]: 68.5 nM | selectivity ratio [3]: 4 | IC50 [4]: 53 nM | selectivity ratio [5]: 385 | Activity [6]: inactive | EC50 [7]: 283 nM | EC50 [8]: 11.7 nM | CC50 at 120 h [9]: 4500 nM | EC50 [10]: 9.9 nM | EC50 [11]: > 4520 nM | EC50 [12]: > 4520 nM | EC50 [13]: > 4520 nM

Cc1cc(C#N)cc(C)c1Oc1nc(Nc2ccc(C#N)cc2)nc(N)c1Br [ETRAVIRINE]
EC50 [1]: 473 nM | EC50 [2]: 7.4 nM | EC50 [7]: 213 nM | EC50 [8]: 4.8 nM | CC50 at 120 h [9]: > 4600 nM | EC50 [10]: 3.9 nM | EC50 [11]: 25.7 nM | EC50 [12]: 27.2 nM | EC50 [13]: 15.2 nM

Cc1cc(C=O)cc(C)c1Oc1nc(Nc2ccc(C#N)cn2)nc2c1CCCC2
EC50 [1]: > 35300 nM | selectivity ratio [3]: 58 | IC50 [4]: 58 nM | selectivity ratio [5]: 1250 | Activity [6]: inactive | EC50 [8]: 234 nM | CC50 at 120 h [9]: 293000 nM

Cc1cc(/C=C/C(N)=O)cc(C)c1Oc1nc(Nc2ccc(C#N)cc2)nn2cccc12
EC50 [1]: 5850 nM | selectivity ratio [3]: 10 | IC50 [4]: 53 nM | selectivity ratio [5]: 1590 | Activity [6]: inactive | EC50 [8]: 36.3 nM | CC50 at 120 h [9]: 57600 nM

Cn1c(Cn2ccc(C(F)(F)F)c(Oc3cc(Cl)cc(C#N)c3)c2=O)n[nH]c1=O [DORAVIRINE]
EC50 [1]: 15 nM | selectivity ratio [3]: > 20100 | selectivity ratio [5]: > 21900 | EC50 [8]: 13 nM | CC50 at 120 h [9]: > 294000 nM

Cc1cc(C#N)cc(C)c1Oc1nc(Nc2ccc(C#N)cc2)nc2c1ccn2CO
EC50 [1]: 128 nM | EC50 [2]: 20.1 nM | selectivity ratio [3]: 6 | IC50 [4]: 40 nM | selectivity ratio [5]: 137 | Activity [6]: inactive | EC50 [7]: 31.2 nM | EC50 [8]: 6.1 nM | CC50 at 120 h [9]: 830 nM | EC50 [10]: 3.7 nM | EC50 [11]: > 707 nM | EC50 [12]: > 707 nM | EC50 [13]: > 707 nM

Cc1cc(C#N)cc(C)c1Oc1nc(Nc2ccc(S(C)(=O)=O)cc2)nc2c1CCCC2
EC50 [1]: > 279000 nM | IC50 [4]: 69 nM | selectivity ratio [5]: > 4920 | Activity [6]: inactive | EC50 [8]: 56.7 nM | CC50 at 120 h [9]: > 279000 nM

Cc1cc(C#N)cc(C)c1Oc1nc(Nc2ccc(C#N)nc2)nc2c1CCCC2
EC50 [1]: > 12600 nM | selectivity ratio [3]: < 19 | IC50 [4]: 50 nM | selectivity ratio [5]: 228 | Activity [6]: inactive | EC50 [8]: 1070 nM | CC50 at 120 h [9]: 244000 nM

Cc1cc(C#N)cc(C)c1Oc1nc(Nc2ccc(OC(F)(F)F)cc2)nc2c1CCCC2
EC50 [1]: > 275000 nM | IC50 [4]: 61000 nM | selectivity ratio [5]: > 3410 | Activity [6]: inactive | EC50 [8]: 80.6 nM | CC50 at 120 h [9]: > 275000 nM

Cc1cc(C#N)cc(C)c1Oc1nc(Nc2ccc(C#N)cc2)nc2c1CCCC2
EC50 [2]: 12.8 nM | IC50 [4]: 52 nM | selectivity ratio [5]: 298 | Activity [6]: inactive | EC50 [7]: 52.7 nM | EC50 [8]: 10.6 nM | EC50 [10]: 7.1 nM | EC50 [11]: 58.4 nM | EC50 [12]: 24.5 nM | EC50 [13]: 19 nM

Cc1cc(C)c(Oc2nc(Nc3ccc(C#N)cc3)nc3c2CCCC3)c(C)c1
EC50 [1]: 805 nM | EC50 [2]: 96.9 nM | selectivity ratio [3]: 8 | IC50 [4]: 241 nM | selectivity ratio [5]: 177 | Activity [6]: inactive | EC50 [7]: 232 nM | EC50 [8]: 38.6 nM | CC50 at 120 h [9]: 6800 nM | EC50 [10]: 57 nM | EC50 [11]: 524 nM | EC50 [12]: 191 nM | EC50 [13]: 171 nM

Cc1cc(C#N)cc(C)c1Oc1nc(Nc2ccc(C#N)nc2)nc2c1ccn2CO
EC50 [1]: > 138000 nM | IC50 [4]: 47 nM | selectivity ratio [5]: ≥ 2950 | Activity [6]: inactive | EC50 [8]: 46.9 nM | CC50 at 120 h [9]: ≥ 138000 nM

Cc1cc(C#N)cc(C)c1Oc1nc(Nc2ccc(C#N)nc2)nc2c1ccn2COCC[Si](C)(C)C
EC50 [1]: > 117000 nM | selectivity ratio [3]: < 1 | IC50 [4]: 7400 nM | selectivity ratio [5]: 463 | Activity [6]: inactive | EC50 [8]: 253 nM | CC50 at 120 h [9]: 117000 nM
